Laboratory results reported in article PMC9672079, “Micro-PET imaging of hepatitis C virus NS3/4A protease activity using a protease-activatable retention probe” (Frontiers in Microbiology, 2022).

Columns and labels:
[1] = system: HCC36 cells; test: Specific retention of probe via flow cytometry; type: cell-based, Human; conditions: control HCC36 cells
Description: (§1) We also used the WT probe (GRKKRRQRRR-[…]-LKKKYK-FITC) and the scrambled sequence probe (GRKKRRQRRR-[…]-LKKKYK) that could not be activated by protease as a control group to test the specific retention of probe via flow cytometry. HCC36 cells, NS3/4A-HCC36 cells, or JFH-1-infected HCC36 cells were incubated with 10 μM TAT-ΔNS3/4A-FITC or 10 μM TAT-scrambled NS3/4A-FITC in the absence or presence of 2 μM telaprevir (NS3/4A protease inhibitor) at 37 °C for 1 h. The cells were washed with DMEM containing 10% serum three times per hour. After culturing for 1 or 8 h, the fluorescence of viable cells was observed via flow cytometry.
(§2) Supplementary file Image_5.TIF: Supplementary Figure 5 To evaluate the specific retention of probe via flow cytometry, we used the WT probe (GRKKRRQRRR-[…]-LKKKYK-FITC) and the scrambled sequence probe (GRKKRRQRRR-[…]-LKKKYK) that could not be activated by protease as a control group to test the specific retention of probe via flow cytometry. HCC36 cells, NS3/4A-HCC36 cells, or JFH-1-infected HCC36 cells were incubated with 10 μM TAT-ΔNS3/4A-FITC or 10 μM TAT-scrambled NS3/4A-FITC in the absence or presence of 2 μM telaprevir (NS3/4A protease inhibitor) at 37°C for 1 h. The cells were washed with DMEM containing 10% serum three times per hour. After culturing for 1 or 8 h, the fluorescence of viable cells was observed via flow cytometry. Click here for additional data file.

[2] = system: JFH-1-infected HCC36 cells; test: Specific retention of probe via flow cytometry; type: cell-based, Human
Description: as §1, §2

[3] = system: NS3/4A-HCC36 cells; test: Specific retention of probe via flow cytometry; type: cell-based, Human
Description: as §1, §2

[4] = system: NS3/4A-HCC36 cells; test: Retention of TAT-ΔNS3/4A-FITC in cells, fluorescence microscopy; type: cell-based, Human; conditions: fluorescence microscope
Description: (§3) HCC36 or NS3/4A-HCC36 cells (1 × 10^5) were seeded with DMEM containing 10% serum in a 24-well plate at 37°C in a CO2 incubator overnight. The cells were incubated with 10 μM of TAT-ΔNS3/4A-FITC in the presence or absence of 2 μM telaprevir (purchased from Legend Star International, Taiwan) at 37°C for 1 h. After probe staining, the cells were washed using DMEM containing 10% serum per 20 min until the end of the experiment. After 8 h washing, the fluorescence of viable cells was observed under a fluorescence microscope at the indicated times (Axiovert 200, Carl Zeiss MicroImaging, GmbH, Germany).
(§4) FIGURE 2 Specific retention of TAT-ΔNS3/4A-FITC in NS3/4A-HCC36- and HCV-infected cells. HCC36 cells, NS3/4A-HCC36 cells, or JFH-1-infected HCC36 cells were incubated with 10 μM TAT-ΔNS3/4A-FITC in the absence or presence of 2 μM telaprevir (NS3/4A protease inhibitor) at 37°C for 1 h. The cells were washed with DMEM containing 10% serum three times per hour. After culturing for 1 or 8 h, the phase contrast and fluorescence of viable cells were observed under a fluorescence microscope. Scale bar: 100 μm.

[5] = system: JFH-1-infected HCC36 cells; test: Retention of TAT-ΔNS3/4A-FITC in HCV-infected cells, fluorescence microscopy; type: cell-based, Human; conditions: fluorescence microscope
Description: (§5) Infectious HCV particles were generated as previously described ([Hayashi et al., 2014]). HCC36 cells (1 × 10^5) were seeded in DMEM containing 10% serum in a 24-well plate at 37°C in a CO2 incubator overnight. The cells were infected with JFH-1 and incubated with or without 2 μM telaprevir. After 5 days, the parental HCC36 and JFH-1-infected cells were stained with 10 μM of TAT-ΔNS3/4A-FITCat 37 °C for 1 h. After probe staining, the cells were washed using DMEM containing 10% serum per 20 min until the end of the experiment. After 8 h washing, the fluorescence of viable cells was observed under a fluorescence microscope at the indicated times (Axiovert 200, Carl Zeiss MicroImaging, GmbH, Germany).
as §4

[6] = system: HCC36 cells; test: Retention of TAT-ΔNS3/4A-FITC in control cells, fluorescence microscopy; type: cell-based, Human; conditions: fluorescence microscope
Description: as §3
as §5, with “After probe staining, the cells were washed using DMEM containing 10% serum per 20 min until the end of the experiment.” left out
FIGURE 2 Specific retention of TAT-ΔNS3/4A-FITC in NS3/4A-HCC36- and HCV-infected cells. […] After culturing for 1 or 8 h, the phase contrast and fluorescence of viable cells were observed under a fluorescence microscope. […]

[7] = system: NS3/4A-HCC36 and HCC36 tumors; test: Histological analysis of FITC fluorescence in tumor sections after i.v. probe; type: in vivo, BALB/c nude mice; conditions: i.v. 500 μM (in 100 μL), 4 h after injection, frozen sections, n = 3 mice
Description: BALB/c nude mice (n = 3) bearing established HCC36 and NS3/4A-HCC36 (100–200 mm^3) tumors in their right and left hind legs, respectively, were intravenously injected with 500 μM (in 100 μL) TAT-ΔNS3/4A-FITC and sacrificed 4 h later. Tumors were excised and embedded in OCT compound (Tissue-Tek, CA) in liquid nitrogen. The adjacent tumor sections either directly detect the FITC-fluorescent intensity to observe the accumulation of TAT-ΔNS3/4A-FITC probe or stained with a 520 HCV protease Assay Kit (AnaSpec) to visualize NS3/4A activity. The sections were examined on an upright BX4 microscope (Olympus, Melville, NY, USA) or viewed under phase contrast or fluorescence fields on an inverted Axiovert 200 microscope (Carl Zeiss Microimaging, Thornwood, NY, USA).
FIGURE 3 Specific retention of TAT-ΔNS3/4A-FITC in NS3/4A-expressing tumors in vivo. Mice bearing established NS3/4A-HCC36 and HCC36 tumors were injected with 500 μM TAT-NS3/4A-FITC and sacrificed after 4 h. Sections of NS3/4A-HCC36 (upper panels) and HCC36 (lower panels) tumors were stained with 520 HCV protease Assay Kit (AnaSpec) to detect NS3/4A activity in tumor sections. FITC-derived fluorescence (green) and NS3/4A activity (red) were observed under a fluorescence microscope. Scale bar: 1 mm.

[8] = system: HEK293 cells; conditions: HEK293, 0.1–2,000 ug/ml, 72 h, cell viability by cellular ATP synthesis, compared with CPT-11
[9] = 10 μM probe 1 h, washed three times per hour, 8 h
[10] = 10 μM probe + 2 μM telaprevir, 8 h
[11] = 10 μM probe, 37°C, 1 h staining
[12] = 10 μM probe 1 h, washed every 20 min, 8 h

In the case of “GRKKRRQRRR-DEDEDEDEMEECASH-LKKKYK-FITC [TAT-ΔNS3/4A-FITC]”, the “fluorescence retention after culturing for 8 h” value (from here on “fluorescence retention … for 8 h”) [1, 9] is reported as “not in control HCC36 cells”, the “fluorescence after 1 h probe staining” value ([1]; 10 μM probe, 37°C, 1 h) is reported as “strong fluorescence of WT probe accumulated in each cell” and the “fluorescence retention … for 8 h” value [2, 9] is reported as “strong fluorescence of WT probe only accumulated in NS3/4A-HCC36 cells and HCV-infected HCC36 cells”. For the same substance, the “fluorescence retention after 8 h in presence of telaprevir” value [2, 10] was “could block via the 2 μM telaprevir”, the “fluorescence after 1 h probe staining” value ([2]; 10 μM probe, 37°C, 1 h) was “strong fluorescence of WT probe accumulated in each cell” and the “fluorescence retention … for 8 h” value [3, 9] was “strong fluorescence of WT probe only accumulated in NS3/4A-HCC36 cells”. The “fluorescence retention after 8 h in presence of telaprevir” value [3, 10] was “could block via the 2 μM telaprevir”, the “fluorescence after 1 h probe staining” value ([3]; 10 μM probe, 37°C, 1 h) was “strong fluorescence of WT probe accumulated in each cell” and the “fluorescence retention … for 8 h” value ([4]; 10 μM probe 1 h, washed with DMEM 10% serum every 20 min, 8 h) was “strong fluorescence only accumulated in NS3/4A-HCC36 cells”. The “fluorescence retention after 8 h in presence of NS3/4A inhibitor” value [4, 10] was “did not accumulate”, the “fluorescence accumulation after probe staining” value (“fluorescence accumulation” below) [4, 11] was “strong fluorescence accumulated in each cell” and the “fluorescence retention … for 8 h” value [5, 12] was “strong fluorescence only accumulated in NS3/4A-HCC36 cells and HCV-infected HCC36 cells”. For the same substance, the “fluorescence retention after 8 h in presence of NS3/4A inhibitor” value [5, 10] was “did not accumulate”, the “fluorescence accumulation” value [5, 11] was “strong fluorescence accumulated in each cell” and the “fluorescence retention … for 8 h” value [6, 12] was “not in control HCC36 cells”. The “fluorescence accumulation” value [6, 11] was “strong fluorescence accumulated in each cell”, the “FITC-derived fluorescence in NS3/4A-HCC36 tumor sections” value [7] was “accumulated in the NS3/4A-HCC3 tumors” and the “in vitro toxicity, growth of HEK293” value [8] was “could not inhibit the growth of HEK293”.
